Source: article PMC11968987 (Nature Communications, 2025)

Biological target: SAT1 (flag-tagged recombinant SAT1) (Homo sapiens, UniProt P21673)
Assay: DTNB-coupled SAT1 activity assay, Lineweaver-Burk plot
Format: biochemical
Settings: co-substrate histone H3 (200 ng); pH 8.0, 35 °C; no ginkgolide B

SAT1 (flag-tagged recombinant SAT1), sequence (P21673 whole entry): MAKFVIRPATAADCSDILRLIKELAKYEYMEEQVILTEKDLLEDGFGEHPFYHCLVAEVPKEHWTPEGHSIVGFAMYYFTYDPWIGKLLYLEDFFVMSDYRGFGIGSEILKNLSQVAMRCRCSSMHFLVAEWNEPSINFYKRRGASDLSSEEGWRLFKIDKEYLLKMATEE

CC(=O)SCCNC(=O)CCNC(=O)[C@H](O)C(C)(C)COP(=O)(O)OP(=O)(O)OC[C@H]1O[C@@H](n2cnc3c(N)ncnc32)[C@H](O)[C@@H]1OP(=O)(O)O [acetyl-CoA]
km: Both the Vmax and km values decreased with the addition of GB
